Test results taken from ChEMBL document CHEMBL4616621, “Pro-apoptotic carboxamide analogues of natural fislatifolic acid targeting Mcl-1 and Bcl-2” (Bioorg Med Chem Lett, 2020).
pIC50, pKi: −log10 of the molar value.

These compounds were tested on MCF7 (assay: Antiproliferative activity against human MCF7 cells assessed as cell death).
Assay type: functional, cell-based
`CC(C)=CCCC1=CC[C@H](C(=O)O)[C@@H](c2ccccc2)C1` was tested, and the pIC50 was 4.19. In the case of `CC(C)=CCCC1=CC[C@H](C(=O)NO)[C@@H](c2ccccc2)C1`, the pIC50 was 4.14. In the case of `CC(C)=CCCC1=CC[C@H](C(=O)Nc2ccc(O)cc2)[C@@H](c2ccccc2)C1`, the pIC50 was 4.18. With `CONC(=O)[C@H]1CC=C(CCC=C(C)C)C[C@@H]1c1ccccc1` the pIC50 was 4.34. `COC(=O)CCNC(=O)[C@H]1CC=C(CCC=C(C)C)C[C@@H]1c1ccccc1` gave a pIC50 of 4.01. `CON(C)C(=O)[C@H]1CC=C(CCC=C(C)C)C[C@@H]1c1ccccc1` showed a pIC50 of 4.38.

What follows are compounds tested against Induced myeloid leukemia cell differentiation protein Mcl-1 (Homo sapiens, UniProt Q07820) (assay: Inhibition of Mcl-1 (unknown origin)/Bid interaction preincubated for 5 mins followed by fluorescein-labeled peptide addition and measured after 10 mins by fluorescein-labeled peptide displacement based fluorescence polarization assay).
Chain of Induced myeloid leukemia cell differentiation protein Mcl-1 (Q07820 whole entry): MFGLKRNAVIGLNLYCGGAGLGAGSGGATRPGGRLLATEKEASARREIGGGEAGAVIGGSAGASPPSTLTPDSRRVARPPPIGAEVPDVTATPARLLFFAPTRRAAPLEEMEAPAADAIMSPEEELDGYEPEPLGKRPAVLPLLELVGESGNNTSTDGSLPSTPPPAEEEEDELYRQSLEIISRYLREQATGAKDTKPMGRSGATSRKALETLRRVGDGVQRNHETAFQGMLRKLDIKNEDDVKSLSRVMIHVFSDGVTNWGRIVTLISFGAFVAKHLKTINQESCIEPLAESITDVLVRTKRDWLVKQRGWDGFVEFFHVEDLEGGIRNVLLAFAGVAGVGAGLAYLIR
`CC(C)=CCCC1=CC[C@H](C(=O)O)[C@@H](c2ccccc2)C1` was tested, and the pKi was 5.40. Work on `CC(C)=CCCC1=CC[C@H](C(=O)N(C)O)[C@@H](c2ccccc2)C1` yielded a pKi of 5.14. `CC1(C)CCCC2=C1C[C@@H](C(=O)O)[C@H](c1ccccc1)C2` showed a pKi of under 4.48. Compound `CON(C)C(=O)[C@H]1CC2=C(CCCC2(C)C)C[C@@H]1c1ccccc1` has a pKi of 4.72. With `CC(C)=CCCC1=CC[C@@H](C(=O)NO)[C@H](c2ccccc2)C1` the pKi was 5.09. `CON(C)C(=O)[C@@H]1CC=C(CCC=C(C)C)C[C@H]1c1ccccc1` showed a pKi of under 4.48. `CC(C)=CCCC1=CC[C@H](C(=O)NO)[C@@H](c2ccccc2)C1` gave a pKi of 5.14. Work on `CC(C)=CCCC1=CC[C@H](C(=O)Nc2ccc(O)cc2)[C@@H](c2ccccc2)C1` yielded a pKi of under 4.48. With `CC(C)=CCCC1=CC[C@@H](C(=O)O)[C@H](c2ccccc2)C1` the pKi was 5.07. Work on `CON(C)C(=O)[C@@H]1CC2=C(CCCC2(C)C)C[C@H]1c1ccccc1` yielded a pKi of 4.82. `COc1ccc(NC(=O)[C@H]2CC=C(CCC=C(C)C)C[C@@H]2c2ccccc2)cc1` was tested, and the pKi was under 4.48. In the case of `COC(=O)c1ccc(NC(=O)[C@@H]2CC=C(CCC=C(C)C)C[C@H]2c2ccccc2)cc1`, the pKi was under 4.48. `CONC(=O)[C@H]1CC=C(CCC=C(C)C)C[C@@H]1c1ccccc1` showed a pKi of 4.78. Work on `COC(=O)CCNC(=O)[C@H]1CC=C(CCC=C(C)C)C[C@@H]1c1ccccc1` yielded a pKi of 5.26. `CON(C)C(=O)[C@H]1CC=C(CCC=C(C)C)C[C@@H]1c1ccccc1` showed a pKi of 6.05.

Each compound was assayed against Bcl-2-like protein 1 (Homo sapiens, UniProt Q07817) (assay: Inhibition of Bcl-xL (unknown origin)/Bak interaction preincubated for 5 mins followed by fluorescein-labeled peptide addition and measured after 10 mins by fluorescein-labeled peptide displacement based fluorescence polarization assay).
Chain of Bcl-2-like protein 1 (Q07817 whole entry): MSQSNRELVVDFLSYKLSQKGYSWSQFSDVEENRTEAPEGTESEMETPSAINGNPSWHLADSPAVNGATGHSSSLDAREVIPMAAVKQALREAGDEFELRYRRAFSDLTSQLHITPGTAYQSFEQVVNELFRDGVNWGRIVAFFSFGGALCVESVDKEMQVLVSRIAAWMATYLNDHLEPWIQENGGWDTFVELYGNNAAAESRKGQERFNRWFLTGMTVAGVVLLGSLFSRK
In the case of `CC(C)=CCCC1=CC[C@H](C(=O)O)[C@@H](c2ccccc2)C1`, the pKi was 5.24. `CC(C)=CCCC1=CC[C@H](C(=O)N(C)O)[C@@H](c2ccccc2)C1` was tested, and the pKi was under 4.64. `CC1(C)CCCC2=C1C[C@@H](C(=O)O)[C@H](c1ccccc1)C2` gave a pKi of under 4.64. Compound `CON(C)C(=O)[C@H]1CC2=C(CCCC2(C)C)C[C@@H]1c1ccccc1` has a pKi of under 4.64. In the case of `CC(C)=CCCC1=CC[C@@H](C(=O)NO)[C@H](c2ccccc2)C1`, the pKi was 4.76. With `CON(C)C(=O)[C@@H]1CC=C(CCC=C(C)C)C[C@H]1c1ccccc1` the pKi was under 4.64. For `CC(C)=CCCC1=CC[C@H](C(=O)NO)[C@@H](c2ccccc2)C1`, the pKi was 4.72. `CC(C)=CCCC1=CC[C@H](C(=O)Nc2ccc(O)cc2)[C@@H](c2ccccc2)C1` gave a pKi of under 4.64. `CC(C)=CCCC1=CC[C@@H](C(=O)O)[C@H](c2ccccc2)C1` gave a pKi of 5.02. With `CON(C)C(=O)[C@@H]1CC2=C(CCCC2(C)C)C[C@H]1c1ccccc1` the pKi was under 4.64. `COc1ccc(NC(=O)[C@H]2CC=C(CCC=C(C)C)C[C@@H]2c2ccccc2)cc1` gave a pKi of under 4.64. `COC(=O)c1ccc(NC(=O)[C@@H]2CC=C(CCC=C(C)C)C[C@H]2c2ccccc2)cc1` gave a pKi of under 4.64. With `CONC(=O)[C@H]1CC=C(CCC=C(C)C)C[C@@H]1c1ccccc1` the pKi was under 4.64. Work on `COC(=O)CCNC(=O)[C@H]1CC=C(CCC=C(C)C)C[C@@H]1c1ccccc1` yielded a pKi of under 4.64. `CON(C)C(=O)[C@H]1CC=C(CCC=C(C)C)C[C@@H]1c1ccccc1` showed a pKi of under 4.64.

What follows are compounds tested against Apoptosis regulator Bcl-2 (Homo sapiens, UniProt P10415) (assay: Inhibition of Bcl2 (unknown origin)/Bim interaction preincubated for 5 mins followed by fluorescein-labeled peptide addition and measured after 10 mins by fluorescein-labeled peptide displacement based fluorescence polarization assay).
Chain of Apoptosis regulator Bcl-2 (P10415 whole entry): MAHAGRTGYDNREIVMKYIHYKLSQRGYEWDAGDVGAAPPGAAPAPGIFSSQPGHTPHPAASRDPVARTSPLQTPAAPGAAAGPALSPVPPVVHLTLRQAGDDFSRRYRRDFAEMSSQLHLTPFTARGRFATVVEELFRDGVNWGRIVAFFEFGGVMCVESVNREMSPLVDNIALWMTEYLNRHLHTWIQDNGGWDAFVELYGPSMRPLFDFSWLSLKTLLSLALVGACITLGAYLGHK
Work on `CC(C)=CCCC1=CC[C@H](C(=O)O)[C@@H](c2ccccc2)C1` yielded a pKi of under 4.64. `CC(C)=CCCC1=CC[C@H](C(=O)N(C)O)[C@@H](c2ccccc2)C1` gave a pKi of 5.68. `CC1(C)CCCC2=C1C[C@@H](C(=O)O)[C@H](c1ccccc1)C2` gave a pKi of under 4.64. For `CON(C)C(=O)[C@H]1CC2=C(CCCC2(C)C)C[C@@H]1c1ccccc1`, the pKi was under 4.64. In the case of `CC(C)=CCCC1=CC[C@@H](C(=O)NO)[C@H](c2ccccc2)C1`, the pKi was 6.15. For `CON(C)C(=O)[C@@H]1CC=C(CCC=C(C)C)C[C@H]1c1ccccc1`, the pKi was under 4.64. `CC(C)=CCCC1=CC[C@H](C(=O)NO)[C@@H](c2ccccc2)C1` was tested, and the pKi was 6.22. `CC(C)=CCCC1=CC[C@H](C(=O)Nc2ccc(O)cc2)[C@@H](c2ccccc2)C1` was tested, and the pKi was under 4.64. Work on `CC(C)=CCCC1=CC[C@@H](C(=O)O)[C@H](c2ccccc2)C1` yielded a pKi of under 4.64. `CON(C)C(=O)[C@@H]1CC2=C(CCCC2(C)C)C[C@H]1c1ccccc1` gave a pKi of under 4.64. `COc1ccc(NC(=O)[C@H]2CC=C(CCC=C(C)C)C[C@@H]2c2ccccc2)cc1` was tested, and the pKi was under 4.64. With `COC(=O)c1ccc(NC(=O)[C@@H]2CC=C(CCC=C(C)C)C[C@H]2c2ccccc2)cc1` the pKi was under 4.64. With `CONC(=O)[C@H]1CC=C(CCC=C(C)C)C[C@@H]1c1ccccc1` the pKi was 5.62. `COC(=O)CCNC(=O)[C@H]1CC=C(CCC=C(C)C)C[C@@H]1c1ccccc1` showed a pKi of 5.51. `CON(C)C(=O)[C@H]1CC=C(CCC=C(C)C)C[C@@H]1c1ccccc1` gave a pKi of 6.52.

These compounds were tested on A549 (assay: Antiproliferative activity against human A549 cells assessed as cell death).
Assay type: functional, cell-based
`CC(C)=CCCC1=CC[C@H](C(=O)O)[C@@H](c2ccccc2)C1` gave a pIC50 of 4.27. With `CC(C)=CCCC1=CC[C@H](C(=O)NO)[C@@H](c2ccccc2)C1` the pIC50 was 4.14. For `CC(C)=CCCC1=CC[C@H](C(=O)Nc2ccc(O)cc2)[C@@H](c2ccccc2)C1`, the pIC50 was 4.18. In the case of `CONC(=O)[C@H]1CC=C(CCC=C(C)C)C[C@@H]1c1ccccc1`, the pIC50 was 4.37. In the case of `COC(=O)CCNC(=O)[C@H]1CC=C(CCC=C(C)C)C[C@@H]1c1ccccc1`, the pIC50 was 4.06. Work on `CON(C)C(=O)[C@H]1CC=C(CCC=C(C)C)C[C@@H]1c1ccccc1` yielded a pIC50 of 4.51.
